A value given as a limit tells only on which side of the number the result lay.

The first assay addresses T1, human M4 receptor (Homo sapiens, UniProt P08173).
T1 construct: expressed in transfected cells; host or cells: CHO-K1 cells (membrane preparation)
T1 sequence (P08173 1-479): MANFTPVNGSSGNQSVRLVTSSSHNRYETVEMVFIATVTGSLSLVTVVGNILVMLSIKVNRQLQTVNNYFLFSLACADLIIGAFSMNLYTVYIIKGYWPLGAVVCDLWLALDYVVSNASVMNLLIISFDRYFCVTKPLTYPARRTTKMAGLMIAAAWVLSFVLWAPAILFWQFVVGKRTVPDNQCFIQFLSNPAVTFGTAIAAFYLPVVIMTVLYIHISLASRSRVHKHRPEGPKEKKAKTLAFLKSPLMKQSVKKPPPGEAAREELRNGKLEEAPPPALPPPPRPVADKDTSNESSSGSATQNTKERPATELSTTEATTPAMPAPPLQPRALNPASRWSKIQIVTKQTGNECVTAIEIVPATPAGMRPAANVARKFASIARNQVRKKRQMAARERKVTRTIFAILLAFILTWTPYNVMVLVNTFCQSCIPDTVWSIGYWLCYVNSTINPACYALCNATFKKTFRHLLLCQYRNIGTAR
Nature of the assay: M4 GTPγS PAM assay. The settings on record: membranes of CHO-K1 cells stably expressing human M4; EC20 acetylcholine 40 nM. Type of assay: biochemical. On the procedure: The M4 GTPγS PAM method was used. Membranes were prepared for GTPgS binding assays from CHO-K1 cells stably expressing human M4 receptor. Briefly, cells were grown in 5-layer cell culture flasks. Cells were washed with 50 mL of PBS and then dissociated with 0.05% trypsin. Dissociated cells were then collected by centrifugation at 650×g for 8 minutes at 4° C. Pellets were washed again in PBS by centrifugation and resuspended in 30 mL of 20 mM HEPES, 10 mM EDTA, pH 7.4. After sitting on ice for 30 min, membranes were collected by centrifugation at 50000×g for 15′ at 4° C., resuspended in 30 mL of 20 mM HEPES, 0.1 mM EDTA, pH 7.4 and collected again by centrifugation. Pellets were then washed twice by centrifugation in 30 mL of 20 mM HEPES, pH 7.4, and stored at −80° C. until the day of the assay. On the day of the assay, pellets were thawed on ice and resuspended in 1 mL of 20 mM HEPES, pH 7.4, 10 mM MgCl2, 100 mM NaCl using dounce homogenization. Membrane protein concentration is determined by BCA protein assay (Promega, Madison, WI) according to Promega guidelines.
On the day of the assay, serial dilutions of test PAM compounds were brought up in assay buffer (20 mM HEPES, 10 mM MgCl2, 100 mM NaCl) at 4× final assay concentration. […] of membrane homogenates (containing […] of membrane protein) were prepared in assay buffer supplemented with GDP at 4× final assay concentration (final assay concentration of GDP is 5 μM for M2 and 0.1 μM for M4) and dispensed into 96 well polypropylene, U-bottom Greiner plates. […] of vehicle or test PAM compound at 4× of final assay concentration diluted in the assay buffer were added to membrane and plates are incubated for 10-15 minutes at room temperature with gentle shaking. Then, […] of EC20 acetylcholine in assay buffer at 4× final assay concentration was added to assay plates (EC20 final assay concentrations was 40 nM for human M4).
Plates were then incubated, with shaking, for an additional 10-15 minutes. 25 mL of 0.4 nM ^35S-GTP (Perkin Elmer, Waltham, MA) in assay buffer was added to assay mixtures. The binding reaction is left on the shaker for 1 hour at room temperature. Membranes in assay reactions were then transferred to GF/C filter plates (Unifilter, Perkin Elmer) and washed three times using a FilterMate Harvester (Perkin Elmer) with cold assay buffer containing no GDP. Filter plates were then dried at 40° C. overnight followed by the addition of […] of Beta Plate Scintillation liquid. Plates are top and bottom sealed before being read on TopCount scintillation counter (Perkin Elmer, Waltham, MA).
With `Cc1c2c(n(C)c(=O)c1C)CN(C(=O)CC1CC1c1cc(F)cc(F)c1)C2` (stereo not drawn) [Compound I-21], the 50% effective concentration (EC50) is below 100 nM.
`Cc1c2c(n(C)c(=O)c1C)CN(C(=O)CC1CC1c1cccc(F)c1F)C2` (stereo not drawn) [Compound I-24] registered an EC50 below 100 nM.
The same measure, in the same setting: next, `COc1c2c(n(C)c(=O)c1C)CN(C(=O)CC1CC1c1ccc(C(F)(F)F)cc1)C2` (stereo not drawn) [Compound I-30]: above 2000 nM.
`Cc1c2c(n(C)c(=O)c1Cl)CN(C(=O)CC1CC1c1cc(F)cc(F)c1)C2` (stereo not drawn) [Compound I-34]: the EC50 is below 100 nM.

A further assay has as its target T2, rM4 receptors (Rattus norvegicus, UniProt P08485).
T2 construct: expressed in transfected cells; host or cells: CHO cells
T2 sequence (P08485 1-478): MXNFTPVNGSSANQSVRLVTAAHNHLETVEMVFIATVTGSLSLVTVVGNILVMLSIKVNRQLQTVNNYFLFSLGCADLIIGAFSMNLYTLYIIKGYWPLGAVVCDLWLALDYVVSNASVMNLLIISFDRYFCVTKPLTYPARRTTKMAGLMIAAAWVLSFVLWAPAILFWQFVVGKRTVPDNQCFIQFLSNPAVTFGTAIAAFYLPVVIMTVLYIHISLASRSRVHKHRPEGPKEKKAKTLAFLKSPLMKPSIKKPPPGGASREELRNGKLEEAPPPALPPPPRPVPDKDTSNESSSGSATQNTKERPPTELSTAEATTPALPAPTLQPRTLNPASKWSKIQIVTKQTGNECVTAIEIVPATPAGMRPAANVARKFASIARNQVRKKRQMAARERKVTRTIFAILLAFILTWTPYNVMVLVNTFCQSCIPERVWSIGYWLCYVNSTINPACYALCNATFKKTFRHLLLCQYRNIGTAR
The experiment in a line: Rat M4 PAM pERK assay. It counts as cell-based. The settings on record: CHO cells expressing rM4; with EC20 of acetylcholine (10 nM final). The protocol: (§1) Chinese hamster ovary (CHO) cells expressing either hM4 or rM4 receptors were frozen in assay ready vials (5×10^6 cells/vial) after bulking-up in culture. The day before an assay, vial(s) were thawed and cells seeded in 384 well white proxiplates at 1000/well for hM4 cells and at 2000/well for rM4 cells, in 10 μL of growth media (Hams/F12 with glutamax and 10% FCS) and incubated overnight at 37° C./5% CO2.
(§2) On the following morning, the growth media was removed by ‘flicking out’ over a bin, patting the inverted plate onto tissue, and then replacing with 10 μL of wash media (Hams/F12 with glutamax and 8 mM HEPES, NB: serum free). Then, the wash media was removed in the same way and replaced with 8 μL/well of the serum free media. Plates were then re-incubated for a further 4 hours at 37° C./5% CO2.
(§3) Compounds for testing were solubilized to 10 mM in DMSO and compound addition plates, consisting of ten-point concentration response curves (CRC) in duplicate points (10 μM top concentration, ½ log dilution series), were prepared by acoustic dispensing and the compound management group.
(§4) After the 4-hour incubation in serum free media, a 4 μL aliquot of the 3× compound solution containing an EC20 of acetylcholine (10 nM final concentration) was added to the cell plate using a 384 well plate to plate transfer. Then, the plate lid was replaced, and the cells incubated for 5 mins at 37° C./5% CO2. Following this final incubation, all cellular processes were stopped by the addition of 4 μL/well of lysis and blocking buffer and plates were incubated for 30 minutes at RT on an orbital shaker (gentle setting). Then, a final addition of 4 μL/well of antibody detection mix, containing both the Europium-Cryptate (donor) and d2 (acceptor) tagged detection components, was added followed by a further 2-hour incubation at RT, and then the plate was read using a TR-FRET (time resolved fluorescence resonance energy transfer) based protocol.
With `Cc1c2c(n(C)c(=O)c1C)CN(C(=O)CC1CC1c1cc(F)cc(F)c1)C2` (stereo not drawn) [Compound I-21], the half-maximal effective concentration (EC50) was 100 to 500 nM.
On the same count and under the same terms, next, `Cc1c2c(n(C)c(=O)c1C)CN(C(=O)CC1CC1c1cccc(F)c1F)C2` (stereo not drawn) [Compound I-24]: 100 to 500 nM; `COc1c2c(n(C)c(=O)c1C)CN(C(=O)CC1CC1c1ccc(C(F)(F)F)cc1)C2` (stereo not drawn) [Compound I-30]: 500 to 2000 nM; `Cc1c2c(n(C)c(=O)c1Cl)CN(C(=O)CC1CC1c1cc(F)cc(F)c1)C2` (stereo not drawn) [Compound I-34]: below 100 nM.

Another assay addresses T3, hM4 receptors (Homo sapiens, UniProt P08173).
T3 construct: expressed in transfected cells; host or cells: CHO cells
T3 sequence (P08173 1-479): T1 sequence (P08173 1-479)
The experiment in a line: Human M4 PAM pERK assay. Type of assay: cell-based. The settings on record: CHO cells expressing hM4; with EC20 of acetylcholine (10 nM final). The protocol:
as §1, §2, §3, §4
In turn, `Cc1c2c(n(C)c(=O)c1C)CN(C(=O)CC1CC1c1cc(F)cc(F)c1)C2` (stereo not drawn) [Compound I-21] came in with an EC50 below 100 nM.
Regarding `Cc1c2c(n(C)c(=O)c1C)CN(C(=O)CC1CC1c1cccc(F)c1F)C2` (stereo not drawn) [Compound I-24], the EC50 is below 100 nM.
`COc1c2c(n(C)c(=O)c1C)CN(C(=O)CC1CC1c1ccc(C(F)(F)F)cc1)C2` (stereo not drawn) [Compound I-30] displayed an EC50 above 2000 nM.
Take `Cc1c2c(n(C)c(=O)c1Cl)CN(C(=O)CC1CC1c1cc(F)cc(F)c1)C2` (stereo not drawn) [Compound I-34]: the EC50 is below 100 nM.

Broadly, the EC50 is the midpoint of the concentration-response curve. Read a high EC50 as weaker potency.

The record behind these values is patent US20260209219A1, “SUBSTITUTED TETRAHYDROPYRROLO-PYRIDINONE COMPOUNDS AND THEIR USE IN TREATING MEDICAL CONDITIONS” (Karuna Therapeutics, Inc., priority 2022, published 2026).
